According to patent US11696917B2, “Agent enhancing antitumor effect using pyrazolo[3,4-d]pyrimidine compound” (TAIHO PHARMACEUTICAL CO., LTD., priority 2017, dated 2023):
Where two headings read alike, the source gives them in different places.

Columns and labels:
[1] = system: HER2-overexpressing human stomach cancer cell line NCI-N87 cells; test: Cytostatic activity against HER2-expressing cell line (NCI-N87), CellTiter-Glo; format: cell-based; details: 3-day culture, read-out: NCI-N87 cell growth inhibitory activity IC50 value
Text: (§1) HER2-overexpressing human stomach cancer cell line NCI-N87 cells were suspended in RPMI1640 medium (manufactured by Life Technologies Corp.) containing 10% fetal bovine serum. Meanwhile, EGFR-overexpressing highly activated human epithelioid cancer cell line A431 cells were suspended in DMEM, high glucose medium (manufactured by Life Technologies Corp.) containing 10% fetal bovine serum. Subsequently, each cell suspension was inoculated to each well of a 384-well flat-bottom microplate and cultured at 37° C. for 1 day in an incubator containing 5% carbon dioxide. The synthesis example compound was dissolved in DMSO, and the test compound was diluted into a concentration of 500 times the final concentration using DMSO. The solution of the test compound in DMSO was diluted with the medium used in the suspension of each cell line, and this solution was added at a final concentration of DMSO of 0.2% to each well of the cell culture plate, followed by further culture at 37° C. for 3 days in an incubator containing 5% carbon dioxide.

[2] = system: HER2-overexpressing human breast cancer cell line SK-BR-3 cells; test: Cytostatic activity against HER2-expressing cell line (SK-BR-3), CellTiter-Glo; format: cell-based; details: 3-day culture, read-out: SK-BR-3 cell growth inhibitory activity IC50 value
Procedure: (§2) Rate of growth inhibition (%)=(C−T)/(C)×100 T: Luminescence intensity of a well supplemented with the test compound C: Luminescence intensity of a well not supplemented with the test compound
as §1, with “breast” for “stomach”, “SK-BR-3” for “NCI-N87”, “McCoy's 5a” for “RPMI1640”, “The” for “Meanwhile, EGFR-overexpressing highly activated human epithelioid cancer cell line A431 cells were suspended in DMEM, high glucose medium (manufactured by Life Technologies Corp.) containing 10% fetal bovine serum. Subsequently, each”, “into” for “into a concentration of”, “times as high concentration as” for “times”

[3] = system: EGFR-overexpressing highly activated human epithelioid cancer cell line A431 cells; test: Cytostatic activity against EGFR-expressing cell line (A431), CellTiter-Glo; format: cell-based; details: 3-day culture, read-out: A431 cell growth inhibitory activity IC50 value
Text: as §1, §2

[4] = biological target: purified recombinant human HER2 protein (Homo sapiens (Human), UniProt P04626); test: Measurement of inhibitory effect on HER2-phosphorylating activity (in vitro); format: biochemical; details: ATP 6 μM, 25° C., 40 minutes
purified recombinant human HER2 protein, sequence (P04626 23-1255): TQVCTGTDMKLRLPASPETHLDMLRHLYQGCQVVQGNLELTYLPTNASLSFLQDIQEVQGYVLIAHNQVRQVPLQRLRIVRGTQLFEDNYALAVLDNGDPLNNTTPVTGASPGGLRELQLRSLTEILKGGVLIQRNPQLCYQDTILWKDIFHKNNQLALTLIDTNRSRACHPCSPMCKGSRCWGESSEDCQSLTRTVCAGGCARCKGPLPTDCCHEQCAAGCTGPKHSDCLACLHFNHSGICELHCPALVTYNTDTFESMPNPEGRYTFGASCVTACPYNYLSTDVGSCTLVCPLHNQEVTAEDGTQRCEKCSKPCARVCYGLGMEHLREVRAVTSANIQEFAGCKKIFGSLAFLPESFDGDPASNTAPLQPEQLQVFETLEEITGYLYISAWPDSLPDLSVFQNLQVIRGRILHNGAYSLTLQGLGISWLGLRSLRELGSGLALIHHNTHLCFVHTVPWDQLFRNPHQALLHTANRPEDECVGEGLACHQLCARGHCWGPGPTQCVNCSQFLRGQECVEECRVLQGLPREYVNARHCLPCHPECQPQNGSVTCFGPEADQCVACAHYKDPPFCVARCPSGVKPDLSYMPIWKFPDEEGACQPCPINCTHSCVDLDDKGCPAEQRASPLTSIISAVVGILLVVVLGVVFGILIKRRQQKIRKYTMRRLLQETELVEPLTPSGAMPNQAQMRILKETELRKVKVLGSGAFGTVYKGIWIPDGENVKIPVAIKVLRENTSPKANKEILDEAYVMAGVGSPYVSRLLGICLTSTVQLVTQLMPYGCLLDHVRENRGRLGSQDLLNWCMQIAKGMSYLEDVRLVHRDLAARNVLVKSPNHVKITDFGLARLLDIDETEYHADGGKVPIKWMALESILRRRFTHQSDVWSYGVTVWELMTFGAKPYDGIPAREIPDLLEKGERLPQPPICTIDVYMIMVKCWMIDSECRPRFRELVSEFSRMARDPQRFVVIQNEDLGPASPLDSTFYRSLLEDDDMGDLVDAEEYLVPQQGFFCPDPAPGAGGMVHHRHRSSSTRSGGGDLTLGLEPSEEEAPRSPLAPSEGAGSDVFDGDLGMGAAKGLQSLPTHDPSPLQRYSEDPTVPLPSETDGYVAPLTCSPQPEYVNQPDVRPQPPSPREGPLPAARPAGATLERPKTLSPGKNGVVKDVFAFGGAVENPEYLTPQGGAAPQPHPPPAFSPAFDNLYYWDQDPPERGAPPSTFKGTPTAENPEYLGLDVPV
Text: The purified recombinant human HER2 protein used in the test was purchased from Carna Biosciences, Inc.
For the inhibitory activity measurement of each compound, the synthesis example compound was first serially diluted with dimethyl sulfoxide (DMSO).

SMILES | IC50 [1] | IC50 [2] | IC50 [3] | IC50 [4] | IC50 ([1]; Homo sapiens, NCI-N87, 72 h) | IC50 ([2]; Homo sapiens, SK-BR-3, 72 h) | IC50 ([3]; Homo sapiens, A-431, 72 h)
C=CC(=O)N1CCC[C@@H](n2nc(C(=O)Nc3cc(Br)c(CC(=O)N(C)C)cc3C)c3c(N)ncnc32)C1 [compound 1] | 19 nM | 20 nM | 2320 nM | 10 nM | – | – | –
C=CC(=O)N1CCC[C@@H](n2nc(C(=O)Nc3cc(C)c(CC(=O)N(C)C)cc3Cl)c3c(N)ncnc32)C1 [compound 2] | 45 nM | 30 nM | 2670 nM | 8.3 nM | – | – | –
C=CC(=O)N1CCC[C@@H](n2nc(C(=O)Nc3ccc(CC(=O)N(C)C)c(C)c3Cl)c3c(N)ncnc32)C1 [compound 3] | 27 nM | 9 nM | 3370 nM | 7.1 nM | – | – | –
C=CC(=O)N1CCC[C@@H](n2nc(C(=O)Nc3ccc(CC(=O)N(C)C)cc3C)c3c(N)ncnc32)C1 [compound 4] | 12 nM | 16 nM | 2610 nM | 12 nM | – | – | –
C=CC(=O)N1CCC[C@@H](n2nc(C(=O)Nc3ccc(CC(=O)N(C)C)c4ccccc34)c3c(N)ncnc32)C1 [compound 5] | 6 nM | 11 nM | 1230 nM | – | – | – | –
C=CC(=O)N1CCC[C@@H](n2nc(C(=O)Nc3ccc(CC(=O)N(C)C)cc3Cl)c3c(N)ncnc32)C1 [compound 6] | 7 nM | 14 nM | 1290 nM | 4 nM | – | – | –
C=CC(=O)N1CCC[C@@H](n2nc(C(=O)Nc3ccc(CC(=O)N(C)C)cc3OC)c3c(N)ncnc32)C1 [compound 7] | 12 nM | 31 nM | 2800 nM | 7.1 nM | – | – | –
C=CC(=O)N1CCC[C@@H](n2nc(C(=O)Nc3ccc(CC(=O)N(C)C)c(Cl)c3)c3c(N)ncnc32)C1 [compound 8] | 8 nM | – | 955 nM | 9.2 nM | – | – | –
C=CC(=O)N1CCC[C@@H](n2nc(C(=O)Nc3cc(Cl)c(CC(=O)N(C)C)cc3OC)c3c(N)ncnc32)C1 [compound 9] | 13 nM | – | 2450 nM | 10 nM | – | – | –
C=CC(=O)N1CCC[C@@H](n2nc(C(=O)Nc3cc(F)c(CC(=O)N(C)C)cc3C)c3c(N)ncnc32)C1 [compound 10] | 6 nM | 21 nM | 1410 nM | 13 nM | – | – | –
C=CC(=O)N1CCC[C@@H](n2nc(C(=O)Nc3ccc(CC(=O)N(C)C)c(F)c3C)c3c(N)ncnc32)C1 [compound 12] | 3 nM | – | 340 nM | 7.5 nM | – | – | –
C=CC(=O)N1CCC[C@@H](n2nc(C(=O)Nc3ccc(CC(=O)N(C)C)c(C)c3C)c3c(N)ncnc32)C1 [compound 13, (R)-1-(1-acryloylpiperidin-3-yl)-4-amino-N-(4-(2-(dimethylamino)-2-oxoethyl)-2,3-dimethylphenyl)-1H-pyrazolo[3,4-d]pyrimidine-3-carboxamide] | – | – | – | – | 5 nM | 9 nM | 1210 nM
C=CC(=O)N1CCC[C@@H](n2nc(C(=O)Nc3cc(F)c(CC(=O)N(C)C)cc3Cl)c3c(N)ncnc32)C1 [compound 18] | 12 nM | – | 1060 nM | 4.4 nM | – | – | –
C=CC(=O)N1CCC[C@@H](n2nc(C(=O)Nc3ccc(OC(=O)N(C)C)cc3Cl)c3c(N)ncnc32)C1 [compound 27] | 5 nM | 9 nM | 1510 nM | – | – | – | –
C=CC(=O)N1CCC[C@@H](n2nc(C(=O)Nc3ccc(OC(=O)N(C)C)c(C)c3)c3c(N)ncnc32)C1 [compound 30] | 23 nM | 39 nM | 2350 nM | – | – | – | –
C=CC(=O)N1CCC[C@@H](n2nc(C(=O)Nc3ccc(OC(=O)N(C)C)c(C)c3C)c3c(N)ncnc32)C1 [compound 32] | 7 nM | 14 nM | 1920 nM | – | – | – | –
C=CC(=O)N1CCC[C@@H](n2nc(C(=O)Nc3ccc(OC(=O)N(C)C)c4ccccc34)c3c(N)ncnc32)C1 [compound 33] | – | – | 263 nM | – | – | – | –
C=CC(=O)N1CCC[C@@H](n2nc(C(=O)Nc3ccc(OC(=O)N(C)C)c(F)c3)c3c(N)ncnc32)C1 [compound 34] | 32 nM | – | 2210 nM | – | – | – | –

SMILES | IC50 [1] | IC50 [2] | IC50 [3] | IC50 [4] | IC50 ([1]; Homo sapiens, NCI-N87, 72 h) | IC50 ([2]; Homo sapiens, SK-BR-3, 72 h) | IC50 ([3]; Homo sapiens, A-431, 72 h)
C=CC(=O)N1CCC[C@@H](n2nc(C(=O)Nc3ccc(OC(=O)N(C)C)c(F)c3F)c3c(N)ncnc32)C1 [compound 35] | 8 nM | – | 2610 nM | 16 nM | – | – | –
C=CC(=O)N1CCC[C@@H](n2nc(C(=O)Nc3ccc(OC(=O)N(C)C)cc3OC)c3c(N)ncnc32)C1 [compound 36] | – | 12 nM | – | – | – | – | –
C=CC(=O)N1CCC[C@@H](n2nc(C(=O)Nc3cc(C)c(OC(=O)N(C)C)cc3C)c3c(N)ncnc32)C1 [compound 38] | 8 nM | 12 nM | 1040 nM | – | – | – | –
C=CC(=O)N1CCC[C@@H](n2nc(C(=O)Nc3ccc(CC(=O)N(C)C)cc3C=C)c3c(N)ncnc32)C1 [compound 48] | 4 nM | – | 314 nM | 8.5 nM | – | – | –
C=CC(=O)N1CCC[C@@H](n2nc(C(=O)Nc3ccc(CC(=O)N(C)C)c(F)c3Cl)c3c(N)ncnc32)C1 [compound 50] | 4 nM | – | 277 nM | 2.9 nM | – | – | –
C=CC(=O)N1CCC[C@@H](n2nc(C(=O)Nc3ccc(CC(=O)N(C)C)c4c3OCO4)c3c(N)ncnc32)C1 [compound 53] | – | 18 nM | – | 14 nM | – | – | –
C=CC(=O)N1CC[C@@H](n2nc(C(=O)Nc3ccc(CC(=O)N(C)C)c(F)c3C)c3c(N)ncnc32)C1 [compound 56] | 31 nM | – | 2610 nM | 22 nM | – | – | –
C=CC(=O)N1CC[C@@H](n2nc(C(=O)Nc3ccc(CC(=O)N(C)C)c(F)c3OC)c3c(N)ncnc32)C1 [compound 57] | 44 nM | – | 3390 nM | 31 nM | – | – | –
C=CC(=O)N1CC[C@@H](n2nc(C(=O)Nc3ccc(OC(=O)N(C)C)c4ccccc34)c3c(N)ncnc32)C1 [compound 58] | – | – | 681 nM | – | – | – | –
C=CC(=O)N1CC[C@@H](n2nc(C(=O)Nc3ccc(CC(=O)N(C)C)cc3C=C)c3c(N)ncnc32)C1 [compound 60] | – | – | 5260 nM | 20 nM | – | – | –
C=CC(=O)N1CC[C@@H](n2nc(C(=O)Nc3ccc(CC(=O)N(C)C)c4ccccc34)c3c(N)ncnc32)C1 [compound 61] | – | – | 1100 nM | 13 nM | – | – | –
C=CC(=O)N1CC[C@@H](n2nc(C(=O)Nc3ccc(OC(=O)N(C)C)cc3C)c3c(N)ncnc32)C1 [compound 63] | 11 nM | – | 1670 nM | – | – | – | –
C=CC(=O)N1CCC[C@@H](n2nc(C(=O)Nc3ccc(CC(=O)N4CCCC4)cc3C)c3c(N)ncnc32)C1 [compound 71, (R)-1-(1-acryloylpiperidin-3-yl)-4-amino-N-(2-methyl-4-(2-oxo-2-(pyrrolidin-1-yl)ethyl)phenyl)-1H-pyrazolo[3,4-d]pyrimidine-3-carboxamide] | – | – | – | – | 26 nM | – | 2120 nM
C=CC(=O)N1CCC[C@@H](n2nc(C(=O)Nc3ccc(NC(=O)N(C)C)cc3C)c3c(N)ncnc32)C1 [compound 74, (R)-1-(1-acryloylpiperidin-3-yl)-4-amino-N-(4-(3,3-dimethylureido)-2-methylphenyl)-1H-pyrazolo[3,4-d]pyrimidine-3-carboxamide] | – | – | – | – | 18 nM | – | 8080 nM
C=CC(=O)N1CC(F)C[C@@H](n2nc(C(=O)Nc3ccc(CC(=O)N(C)C)cc3Cl)c3c(N)ncnc32)C1 (stereo partly drawn) [compound 76, 1-((3R)-1-acryloyl-5-fluoropiperidin-3-yl)-4-amino-N-(2-chloro-4-(2-(dimethylamino)-2-oxoethyl)phenyl)-1H-pyrazolo[3,4-d]pyrimidine-3-carboxamide] | – | – | – | – | – | 8 nM | 2070 nM
C=CC(=O)N1CC(F)C[C@@H](n2nc(C(=O)Nc3ccc(CC(=O)N(C)C)c(C)c3C)c3c(N)ncnc32)C1 (stereo partly drawn) [compound 77, 1-((3R)-1-acryloyl-5-fluoropiperidin-3-yl)-4-amino-N-(4-(2-(dimethylamino)-2-oxoethyl)-2,3-dimethylphenyl)-1H-pyrazolo[3,4-d]pyrimidine-3-carboxamide] | – | – | – | – | – | 12 nM | 2460 nM
C=CC(=O)N1C[C@H](n2nc(C(=O)Nc3ccc(CC(=O)N(C)C)cc3Cl)c3c(N)ncnc32)C[C@@H]1C [compound 78] | – | – | 5450 nM | – | – | – | –
C=CC(=O)N1C[C@H](n2nc(C(=O)Nc3ccc(CC(=O)N(C)C)c(C)c3C)c3c(N)ncnc32)C[C@@H]1C [compound 79] | – | – | 6940 nM | 17 nM | – | – | –
